# Measurements from patent US20220184054A1, “ANTI-VIRAL ACTIVITY OF VPS34 INHIBITORS” (priority 2020, published 2022).
# Like-named read-outs stand apart in the source and are kept apart here.
# Experiments:
# [1] = tested on: SARS CoV-2 (USA_WA1/2020); test: SARS CoV-2 CPE assay for antiviral activity (Vero E6 host cells, Cell Titer-Glo); type: cell-based; conditions: read-out: IC50 for inhibition of SARS CoV-2 mediated cell killing
# [2] = Compound cytotoxicity (CC50) counter screen in Vero E6 cells; type: cell-based; conditions: African green monkey, read-out: CC50 (general cytotoxic effects in Vero E6 cells)
# Description: Compound cytotoxicity (CC50) is assessed in a BSL-2 counter screen as follows: Host cells in media are added in 25 μl aliquots (4000 cells/well) to each well of assay ready plates prepared with test compounds as above. Cells only (100% viability) and cells treated with hyamine at 100 μM final concentration (0% viability) serve as the high and low signal controls, respectively, for cytotoxic effect in the assay. DMSO is maintained at a constant concentration for all wells (0.3%) as dictated by the dilution factor of stock test compound concentrations. After incubating plates at 37° C./5% CO2 and 90% humidity for 72 hours, 30 μl Cell Titer-Glo (Promega) is added to each well. Luminescence is read using a BMG PHERAstar plate reader following incubation at room temperature for 10 minutes to measure cell viability.
# SARS-CoV-2 = test: microbe, parasite or virus in culture; type: cell-based; conditions: Severe acute respiratory syndrome coronavirus 2, A549, 48 h; read-out: IC50 for inhibition of SARS CoV-2 mediated cell killing
# in vitro = conditions: human
# [3] = Vero C1008, Vero E6 cells, 10-point dose response, high concentration 15 μM, 72 hours
SMILES,"IC50 [1, 3] [nM]",CC50 at 72 h [2] [nM],IC50 (SARS-CoV-2) [nM],CC50 (in vitro) [nM],"IC50 ([1]; Vero C1008, 72 h) [nM]"
O=c1cc(-c2ccnc3[nH]ncc23)cc(N2CCCCC2C(F)(F)F)[nH]1 (stereo not shown) [Compound 1],470,15000,510,8000,–
N#Cc1cc2c(-c3cc(-c4ccccc4C(F)(F)F)[nH]c(=O)c3)ccnc2[nH]1 [Compound 2],3010,> 10000,1570,> 10000,–
O=c1cc(-c2ccnc3[nH]c(C4CC4)cc23)cc(N2CCCCC2C(F)(F)F)[nH]1 (stereo not shown) [Compound 3],114,2830,29,482,–
Cc1ccc(-c2cc3c(-c4cc(N5CCOCC5C(F)(F)F)[nH]c(=O)c4)ccnc3[nH]2)s1 (stereo not shown) [Compound 4],–,1430,158,411,1040
